Where two headings read alike, the source gives them in different places.
Test system: panel of 55 breast cancer cell lines
Assay: Cell growth inhibition assay (Cell Titer Glo, 72 h, 9 doses; GI50, TGI, LC50)
Format: cell-based, human
Conditions: Homo sapiens, read-out: GI50 (converted)
[1] = HCC1395, HCC1395 cell line, censored GI50 values
[2] = HCC1419, HCC1419 cell line, censored GI50 values
[3] = HCC1954, HCC1954 cell line, censored GI50 values
[4] = MDA-MB-134-VI, MDAMB134VI cell line, censored GI50 values
[5] = MDA-MB-175-VII, MDAMB175VII cell line, censored GI50 values
[6] = SUM52PE, SUM52PE cell line, censored GI50 values
[7] = SUM149PT, SUM149PT cell line, censored GI50 values
[8] = SUM1315MO2, SUM1315MO2 cell line, censored GI50 values
[9] = ZR-75-1, ZR751 cell line, censored GI50 values
[10] = 600MPE cell line, censored GI50 values
[11] = AU565, AU565 cell line, censored GI50 values
[12] = BT-474, BT474 cell line, censored GI50 values
[13] = BT-483, BT483 cell line, censored GI50 values
[14] = CAMA-1, CAMA1 cell line, censored GI50 values
[15] = HCC1143, HCC1143 cell line, censored GI50 values
[16] = HCC1187, HCC1187 cell line, censored GI50 values
[17] = HCC1428, HCC1428 cell line, censored GI50 values
[18] = HCC1500, HCC1500 cell line, censored GI50 values
[19] = HCC1806, HCC1806 cell line, censored GI50 values

Compound: Cn1cnc2c(F)c(Nc3ccc(Br)cc3Cl)c(C(=O)NOCCO)cc21 [AZD6244]
- GI50 (BT-20, cell line BT20): 50.1 µM
- GI50 (BT-474, cell line BT474): 50.1 µM
- GI50 (BT-483, cell line BT483): 50.1 µM
- GI50 (CAMA-1, cell line CAMA1): 50.1 µM
- GI50 (HCC38, cell line HCC38): 50.1 µM
- GI50 [1]: 28.8 µM
- GI50 (HCC1395, cell line HCC1395): 28.8 µM
- GI50 [2]: 17.8 µM
- GI50 (HCC1419, cell line HCC1419): 17.8 µM
- GI50 (HCC1428, cell line HCC1428): 50.1 µM
- GI50 (HCC1500, cell line HCC1500): 50.1 µM
- GI50 (HCC1806, cell line HCC1806): 50.1 µM
- GI50 (HCC1937, cell line HCC1937): 50.1 µM
- GI50 [3]: 1.45 µM
- GI50 (HCC1954, cell line HCC1954): 1.45 µM
- GI50 (MCF7, cell line MCF7): 50.1 µM
- GI50 [4]: 1.17 µM
- GI50 [5]: 2.57 µM
- GI50 (MDA-MB-231, cell line MDAMB231): 50.1 µM
- GI50 (MDA-MB-361, cell line MDAMB361): 50.1 µM
- GI50 (MDA-MB-415, cell line MDAMB415): 50.1 µM
- GI50 (MDA-MB-436, cell line MDAMB436): 50.1 µM
- GI50 (MDA-MB-453, cell line MDAMB453): 50.1 µM
- GI50 (MDA-MB-468, cell line MDAMB468): 50.1 µM
- GI50 (SK-BR-3, cell line SKBR3): 50.1 µM
- GI50 [6]: 9.77 µM
- GI50 (SUM52PE, cell line SUM52PE): 9.77 µM
- GI50 [7]: 0.525 µM
- GI50 (SUM149PT, cell line SUM149PT): 0.525 µM
- GI50 (SUM185PE, cell line SUM185PE): 50.1 µM
- GI50 [8]: 7.59 µM
- GI50 (T47D, cell line T47D): 50.1 µM
- GI50 [9]: 6.17 µM
- GI50 (ZR-75-1, cell line ZR751): 6.17 µM
- GI50 (ZR-75B, cell line ZR75B): 50.1 µM
- GI50 (cell line HCC2185): 50.1 µM
- GI50 (cell line MDAMB134V): 1.17 µM
- GI50 (cell line MDAMB175V): 2.57 µM
- GI50 (cell line SUM1315MO): 7.59 µM

Compound: CNC(=O)c1cc(Oc2ccc(NC(=O)Nc3ccc(Cl)c(C(F)(F)F)c3)cc2)ccn1 [Sorafenib]
- GI50 [10]: 45.7 µM
- GI50 [11]: 178 µM
- GI50 (AU565, cell line AU565): 178 µM
- GI50 (BT-20, BT20 cell line, censored GI50 values): 63.1 µM
- GI50 (BT-20, cell line BT20): 63.1 µM
- GI50 [12]: 100 µM
- GI50 (BT-474, cell line BT474): 100 µM
- GI50 [13]: 11.7 µM
- GI50 (BT-483, cell line BT483): 11.7 µM
- GI50 (BT-549, BT549 cell line, censored GI50 values): 120 µM
- GI50 (BT-549, cell line BT549): 120 µM
- GI50 [14]: 95.5 µM
- GI50 (CAMA-1, cell line CAMA1): 95.5 µM
- GI50 (HCC38, HCC38 cell line, censored GI50 values): 87.1 µM
- GI50 (HCC38, cell line HCC38): 87.1 µM
- GI50 (HCC70, HCC70 cell line, censored GI50 values): 35.5 µM
- GI50 (HCC70, cell line HCC70): 35.5 µM
- GI50 (HCC202, HCC202 cell line, censored GI50 values): 72.4 µM
- GI50 (HCC202, cell line HCC202): 72.4 µM
- GI50 [15]: 58.9 µM
- GI50 (HCC1143, cell line HCC1143): 58.9 µM
- GI50 [16]: 32.4 µM
- GI50 (HCC1187, cell line HCC1187): 32.4 µM
- GI50 [1]: 47.9 µM
- GI50 (HCC1395, cell line HCC1395): 47.9 µM
- GI50 [2]: 417 µM
- GI50 (HCC1419, cell line HCC1419): 417 µM
- GI50 [17]: 45.7 µM
- GI50 (HCC1428, cell line HCC1428): 45.7 µM
- GI50 [18]: 178 µM
- GI50 (HCC1500, cell line HCC1500): 178 µM
- GI50 [19]: 148 µM
- GI50 (HCC1806, cell line HCC1806): 148 µM
- GI50 (HCC1937, HCC1937 cell line, censored GI50 values): 513 µM
- GI50 (HCC1937, cell line HCC1937): 513 µM
- GI50 [3]: 55 µM
- GI50 (HCC1954, cell line HCC1954): 55 µM
- GI50 (HCC2185 cell line, censored GI50 values): 14.8 µM
- GI50 (HCC3153 cell line, censored GI50 values): 120 µM
- GI50 (MCF7, MCF7 cell line, censored GI50 values): 64.6 µM
- GI50 (MCF7, cell line MCF7): 64.6 µM
- GI50 [4]: 28.8 µM
- GI50 (MDA-MB-157, MDAMB157 cell line, censored GI50 values): 240 µM
- GI50 [5]: 81.3 µM
- GI50 (MDA-MB-231, MDAMB231 cell line, censored GI50 values): 89.1 µM
- GI50 (MDA-MB-361, MDAMB361 cell line, censored GI50 values): 60.3 µM
- GI50 (MDA-MB-415, MDAMB415 cell line, censored GI50 values): 95.5 µM
- GI50 (MDA-MB-436, MDAMB436 cell line, censored GI50 values): 51.3 µM
- GI50 (MDA-MB-468, MDAMB468 cell line, censored GI50 values): 158 µM
- GI50 (SK-BR-3, SKBR3 cell line, censored GI50 values): 70.8 µM
- GI50 [6]: 1.7 µM
- GI50 [7]: 15.8 µM
- GI50 (SUM185PE, SUM185PE cell line, censored GI50 values): 1.48 µM
- GI50 (SUM225CWN, SUM225CWN cell line, censored GI50 values): 40.7 µM
- GI50 [8]: 186 µM
- GI50 (SUM-159-PT, SUM159PT cell line, censored GI50 values): 21.9 µM
- GI50 (T47D, T47D cell line, censored GI50 values): 25.7 µM
- GI50 (UACC-893, UACC893 cell line, censored GI50 values): 331 µM
- GI50 [9]: 45.7 µM
- GI50 (cell line 600MPE): 45.7 µM
- GI50 (cell line HCC2185): 14.8 µM
- GI50 (cell line HCC3153): 120 µM

Compound: CC(=O)O[C@H]1C(=O)[C@@]2(C)[C@H]([C@H](OC(=O)c3ccccc3)[C@]3(O)C[C@H](OC(=O)[C@H](O)[C@@H](NC(=O)c4ccccc4)c4ccccc4)C(C)=C1C3(C)C)[C@]1(OC(C)=O)CO[C@@H]1C[C@@H]2O [Paclitaxel]
- GI50 [10]: 0.0661 µM
- GI50 [11]: 0.00813 µM
- GI50 (AU565, cell line AU565): 0.00813 µM
- GI50 [12]: 0.0102 µM
- GI50 (BT-474, cell line BT474): 0.0102 µM
- GI50 [13]: 0.0347 µM
- GI50 (BT-483, cell line BT483): 0.0347 µM
- GI50 [14]: 0.0112 µM
- GI50 (CAMA-1, cell line CAMA1): 0.0112 µM
- GI50 (HCC38, cell line HCC38): 0.00741 µM
- GI50 (HCC70, cell line HCC70): 0.00813 µM
- GI50 (HCC202, cell line HCC202): 0.00794 µM
- GI50 [15]: 0.017 µM
- GI50 (HCC1143, cell line HCC1143): 0.017 µM
- GI50 [16]: 0.00891 µM
- GI50 (HCC1187, cell line HCC1187): 0.00891 µM
- GI50 [1]: 0.0158 µM
- GI50 (HCC1395, cell line HCC1395): 0.0158 µM
- GI50 [2]: 0.692 µM
- GI50 (HCC1419, cell line HCC1419): 0.692 µM
- GI50 [17]: 16.6 µM
- GI50 (HCC1428, cell line HCC1428): 16.6 µM
- GI50 [18]: 0.00794 µM
- GI50 (HCC1500, cell line HCC1500): 0.00794 µM
- GI50 [19]: 0.00871 µM
- GI50 (HCC1806, cell line HCC1806): 0.00871 µM
- GI50 [3]: 0.00708 µM
- GI50 (HCC1954, cell line HCC1954): 0.00708 µM
- GI50 (MCF7, cell line MCF7): 0.0162 µM
- GI50 (MDA-MB-231, cell line MDAMB231): 0.00525 µM
- GI50 (MDA-MB-361, cell line MDAMB361): 0.0132 µM
- GI50 (MDA-MB-415, cell line MDAMB415): 0.00525 µM
- GI50 (MDA-MB-436, cell line MDAMB436): 0.0427 µM
- GI50 (MDA-MB-453, cell line MDAMB453): 0.0102 µM
- GI50 (MDA-MB-468, cell line MDAMB468): 0.00871 µM
- GI50 (SK-BR-3, cell line SKBR3): 0.0112 µM
- GI50 (SUM52PE, cell line SUM52PE): 0.0049 µM
- GI50 (SUM149PT, cell line SUM149PT): 0.00933 µM
- GI50 (SUM185PE, cell line SUM185PE): 0.024 µM
- GI50 (SUM-159-PT, cell line SUM159PT): 0.0151 µM
- GI50 (UACC-812, cell line UACC812): 0.00912 µM
- GI50 (UACC-893, cell line UACC893): 0.0117 µM
- GI50 (ZR-75-1, cell line ZR751): 0.0275 µM
- GI50 (ZR-75-30, cell line ZR7530): 0.0219 µM
- GI50 (ZR-75B, cell line ZR75B): 0.00794 µM
- GI50 (cell line 600MPE): 0.0661 µM
- GI50 (cell line HCC2185): 0.00724 µM
- GI50 (cell line HCC3153): 0.02 µM
- GI50 (cell line LY2): 0.0105 µM
- GI50 (cell line MDAMB134V): 0.01 µM
- GI50 (cell line MDAMB175V): 0.0195 µM
- GI50 (cell line SUM1315MO): 0.00617 µM

Reference: patent publication US10770169B2, “Method of providing a treatment to a subject based on a dynamic pathway map” (THE REGENTS OF THE UNIVERSITY OF CALIFORNIA, priority 2010, dated 2020)
